The results in this text go back to ChEMBL document CHEMBL1221200, “Diarylquinolines target subunit c of mycobacterial ATP synthase” (Nat Chem Biol, 2007).

The test relates to Mycobacterium tuberculosis. Briefly: Antimicrobial activity against Mycobacterium bovis BCG by alamar blue assay. The format is functional, variant bovis BCG. For orientation: Resazurin is reduced to fluorescent resorufin, in cell work by metabolically active cells.

Each structure is given as a SMILES string. ≈ marks a conversion by molar mass, not a printed value.

Usually MIC90 stands for the lowest concentration that inhibits either 90% of growth or 90% of the strains tested, depending on the study.

The compound `COc1nc2ccc(Br)cc2cc1[C@H](c1ccccc1)[C@@](O)(CCN(C)C)c1cccc2ccccc12` (racemic; 1c) gave an MIC90 of 7.9 µg/mL (≈ 14.2 µM).

The compound `COc1nc2ccc(Br)cc2cc1[C@H](c1ccccc1)[C@@](O)(CCN(C)C)c1cccc2ccccc12` (racemic; 1d) yielded an MIC90 of 1.8 µg/mL (≈ 3.24 µM).

In turn, `COc1nc2ccc(Br)cc2cc1[C@@H](c1ccccc1)[C@@](O)(CCN(C)C)c1cccc2ccccc12` (single isomer, unassigned) [BEDAQUILINE] displayed an MIC90 of 1.8 µg/mL (≈ 3.24 µM).

Take `COc1nc2ccc(Br)cc2cc1[C@@H](c1ccccc1)[C@@](O)(CCN(C)C)c1cccc2ccccc12` [BEDAQUILINE]: the MIC90 worked out at 0.07 µg/mL (≈ 0.126 µM).

As to `CO[C@H]1/C=C/O[C@@]2(C)Oc3c(C)c(O)c4c(O)c(c(/C=N/N5CCN(C)CC5)c(O)c4c3C2=O)NC(=O)/C(C)=C\C=C\[C@H](C)[C@H](O)[C@@H](C)[C@@H](O)[C@@H](C)[C@H](OC(C)=O)[C@@H]1C` [RIFAMPIN], where the note is “Mycobacterium tuberculosis, variant bovis BCG, read-out: MIC90”, the MIC90 was found to be 0.02 µg/mL (≈ 0.0243 µM).
